Measured values taken from US6562789B2, “Histidine derivatives, preparation process, and their use as free antiradical agents” (L'Oreal S.A., priority 1996, dated 2003).

Assays:
[1] = anti-singlet-oxygen activity: deactivation of singlet oxygen, luminescence at 1270 nm, Stern-Volmer type analysis; assay type: physicochemical; conditions: for (kr + kq), sum of the rate constants for the chemical reaction and for the physical inhibition of singlet oxygen: singlet oxygen generated by irradiating Ru(bipy)3Cl at 437 nm in deuterated methanol, luminescence at 1270 nm
Excerpt: The anti-singlet-oxygen activity of the compound of Example 1 was compared with that of N-octanoyl-β-alanyl-L-histidine (referred to as compound A) of the prior art, according to the following principle, which is also described in Pure & Appl. Chem., vol. 62, No. 8, 1467-1476 (1990).
In all the experiments, singlet oxygen was generated by irradiating at 437 nm Ru(bipy)3Cl (tris(2,2′-bipyridyl)ruthenium chloride hexahydrate) dissolved in deuterated methanol.
The sum of the physical inhibition constants (kq) and chemical reaction constants (kr) of singlet oxygen with the test compounds was determined.
The results for the deactivation of singlet oxygen can be analysed by measuring the luminescence (infrared emission) of singlet oxygen at 1270 nm, and by monitoring the kinetics of disappearance of oxygen.
The exploitation of the results is based on the Stern-Volmer type analysis principle: the signal obtained is measured in the absence (So) and in the presence (S) of the test compound, at various concentrations in the solution. The ratio So/S makes it possible to determine the value of (kr+kq) according to the following relationship:
[P] denotes the concentration of test compound in the solution, φo denotes the quantic yield of the emission in the absence of compound, φ denotes the quantic yield of the emission in the presence of compound, τo denotes the lifetime of singlet oxygen in deuterated methanol (270 μs), kr+kq denotes the sum of the rate constants for the chemical reaction and for the physical inhibition of singlet oxygen.

melting point [°C] | SMILES | anti-singlet-oxygen activity compared with compound A of the prior art ([1]; comparison of (kr+kq) in deuterated methanol) | (kr + kq), sum of the rate constants for the chemical reaction and for the physical inhibition of singlet oxygen [1]
168 to 172 | CCCCCCCCCCCCOC(=O)NCCC(=O)N[C@@H](Cc1c[nH]cn1)C(=O)O [Example 2, N-dodecyloxycarbonyl-β-alanyl-L-histidine] | – | –
188 to 190 | CCCCCCCCOC(=O)NCCC(=O)N[C@@H](Cc1c[nH]cn1)C(=O)O [Example 1, N-octyloxycarbonyl-β-alanyl-L-histidine] | significantly higher anti-singlet-oxygen activity | 8.8 × 10^6 ± 0.3 1.mol^−1.s^−1
– | CCCCCCCC(=O)NCCC(=O)N[C@@H](Cc1c[nH]cn1)C(=O)O [Compound A, N-octanoyl-β-alanyl-L-histidine, reference compound] | – | 7.4 × 10^5 ± 0.4 1.mol^−1.s^−1
